In test [1] the test system is platelet thrombus formation on collagen-coated capillary (type I collagen). The test can be described thus: Perfusion assay, non-anticoagulated whole blood, type I collagen, 1000 s^−1 (Example 6). Type of test: cell-based, human. The conditions noted are these: Compound A alone at 10 μM. The method, then: After perfusion the size of the platelet thrombus was measured by fluorescence.

For test [2], the system named is whole human blood perfused over type III collagen (thrombus formation). The test can be described thus: Real time perfusion chamber thrombosis assay (Example 3). It is filed as cell-based. The note with it: read-out: inhibition of thrombosis. The source says: The real time perfusion chamber assay couples the features of animal thrombosis models that use intravital microscopy to those of perfusion chamber technology in order to produce an assay suited to monitoring drug activity in clinical trials. This assay perfuses whole blood through capillaries at arterial rates of shear, exposing the blood to thrombogenic type III collagen. Platelets are labeled with a fluorescent dye (rhodamine 6 G) prior to perfusion such that analysis of the thrombus deposition can be performed by measurement of fluorescence intensity inside the perfusion chamber. Quantification is performed by analysis of the thrombus height (fluorescence intensity (number of pixels)/total area (μm^2)).

The subject of test [3] is thrombosis on mouse mesenteric arteries. Briefly: Mouse mesenteric artery thrombosis model, intravital microscopy, 10% FeCl3 (Example 14). It is filed as in vivo, C57B16J mice. On the procedure:
Thrombosis on mouse mesenteric arteries (shear rate 1000-1300 s^−1) was performed and recorded as previously described with minor modifications. (Andre, P., et al., Anticoagulants (thrombin inhibitors) and aspirin synergize with P2Y12 receptor antagonism in thrombosis. Circulation, 2003. 108(21): p. 2697-703.) Platelets were labeled in situ using rhodamine 6G (0.2 mg/mL) administered through the tail vein 10 min before visualization of the arteries. Vessel-wall injury was triggered by a 1×1-mm filter paper saturated with a 10% FeCl3 solution. After 5 minutes, the filter paper was removed and mesenteric arteries rinsed with warmed saline (37° C.). Platelet vessel-wall interactions were recorded for 40 additional min or until full occlusion occurred and persisted for more than 40 seconds. C57B16J mice were orally gavaged with vehicle control, compound A (0.83, 2.5, 7.5, 20, 60 mg/kg) or betrixaban (2, 4, 10 mg/kg) two hours prior to vascular injury. Thrombosis was analyzed in real time using Simple PCI software. (Andre, P., et al., P2Y12 regulates platelet adhesion/activation, thrombus growth, and thrombus stability in injured arteries. J Clin Invest, 2003. 112(3): p. 398-406.) The fluorescence intensity was recorded at a rate of 2 Hz for 40 minutes and plotted over time. Time to occlusion (cessation of blood flow) is analyzed.
Plasma concentrations of Compound A and betrixaban were determined on blood draw collected 2 min post-occlusion or 42 min after start of vascular injury.

The subject of test [4] is ADP induced platelet aggregation in human platelet rich plasma. The test can be described thus: ADP induced platelet aggregation. It is filed as cell-based.
Test [5] relates to thrombosis on mouse mesenteric arteries. Briefly: Mouse mesenteric artery thrombosis model, 5% FeCl3 (Example 13, present tense). It is filed as in vivo, C57B16J mice. The note with it: for antithrombotic activity in the intravital microscopy thrombosis model in mice: other factor Xa inhibitors, expected. The method, then: Thrombosis on mouse mesenteric arteries (shear rate 1000-1300 s^−1) is performed and recorded as previously described with minor modifications, as described in Andre, P. et al., Anticoagulants (thrombin inhibitors) and aspirin synergize with P2Y12 receptor antagonism in thrombosis. Circulation, 2003, 108(21):2697-703. Platelets are labeled in situ using rhodamine 6G (0.2 mg/mL) administered through the tail vein 10 mins before visualization of the arteries. Vessel-wall injury is triggered by a 1×1-mm filter paper saturated with a 5% FeCl3 solution. After 5 minutes, the filter paper is removed and mesenteric arteries rinsed with warmed saline (37° C.). Platelet vessel-wall interactions are recorded for 40 additional mins or until full occlusion occurs and persists for more than 40 seconds. C57B16J mice are orally gavaged with vehicle control, Compound A (7.5, 20, 60 mg/kg) or betrixaban (4, 40, 400 mg/kg) two hours prior to vascular injury. Thrombosis is analyzed in real time using Simple PCI software, as described in Andre, P. et al., P2Y12 regulates platelet adhesion/activation, thrombus growth, and thrombus stability in injured arteries. J Clin Invest, 2003, 112(3):398-406. The fluorescence intensity is recorded at a rate of 2 Hz for 40 minutes and plotted over time. Time to occlusion (cessation of blood flow) is analyzed.

Test [6] relates to thrombin generation in platelet rich plasma. Briefly: Platelet-initiated thrombin generation assay (Example 5). Type of test: cell-based, human. The method, then: Whole blood from healthy volunteer donors was collected by venipuncture and drawn into 3.2% trisodium citrate (Vacutainer, Becton Dickinson) for anticoagulation. Platelet rich plasma was prepared by centrifugation and the platelet count was adjusted to 150,000/μL. In a 96 well plate, platelets were activated by addition of convulxin (200 ng/mL) and incubation at 37° C. for 3 mins. Subsequent to platelet activation, thrombin generation was initiated by addition of 23 pM tissue factor (Innovin, Dade Behring) and 15 mM calcium. Thrombin activity was monitored by cleavage of the specific fluorogenic substrate (Z-gly-gly-arg-AMC, Bachem) in a fluorescence plate reader.

Test [7] concerns thrombus formation under arterial shear conditions. The test can be described thus: Perfusion assay, blood collected in bivalirudin, type III collagen, 1600 s^−1 (Example 8). It is filed as cell-based. The note with it: bivalirudin alone, 12 μg/mL. On the procedure:
As an example of additive antithrombotic benefit achieved when Compound A was combined with a direct thrombin inhibitor, such as bivalirudin, in the following assay, blood was collected in 12 μg/mL bivalirudin (standard therapeutic concentration), incubated with various concentrations of Compound A (0.1, 1 or 10 μM) for 20 mins in the presence of rhodamine 6G (which fluorescently labels platelets), followed by perfusion through a glass capillary coated with collagen (type III) at a fixed shear rate (1600 s^−1). […] FIG. 7 illustrates the combined antithrombotic benefit achieved by the combination of Compound A and bivalirudin.

Where [8] appears, read: betrixaban 10 mg/kg, oral gavage.

The record followed here is patent publication US8946219B2, “Combination therapy with a compound acting as a platelet ADP receptor inhibitor” (Portola Pharmaceuticals, Inc., priority 2007, dated 2015).

Broadly, the inhibition is the relative decrease from the control value, in per cent. Regarding `CNc1cc2[nH]c(=O)n(-c3ccc(NC(=O)NS(=O)(=O)c4ccc(Cl)s4)cc3)c(=O)c2cc1F` [Compound A], in test [1], the platelet thrombus size entry was “no significant effect”. Further, in test [2], the inhibition at 1.1 µM is 23%. Further, in test [3] (PK/PD, FIG. 13), the “plasma concentration that did not prevent occlusion” value is recorded as “below 1 μg/mL”, the “plasma concentrations of non-effective doses” value was “below 200 ng/mL” and the “plasma levels that prevented vascular occlusion” value was over 1 µg/mL. Also, the “concentration capable of maximal inhibition of platelet aggregation” value in test [4] was determined as 10 µM. In addition, the IC50 in test [4] (Platelet, platelets derived from human donors, n=19, read-out: half maximal inhibition of ADP induced platelet aggregation) turned out to be 4.7 ± 5.1 µM.

Consider `COc1ccc(-n2nc(C(N)=O)c3c2C(=O)N(c2ccc(N4CCCCC4=O)cc2)CC3)cc1` [apixaban, 1-(4-methoxyphenyl)-7-oxo-6-(4-(2-oxopiperidin-1-yl)phenyl)-3a,4,5,6,7,7a-hexahydro-1H-pyrazolo[3,4-c]pyridine-3-carboxamide], for which the “antithrombotic activity in the intravital microscopy thrombosis model in mice” value in test [5] was “significant antithrombotic activity”.

For `COc1ccc(NC(=O)c2ccc(C(=N)N(C)C)cc2)c(C(=O)Nc2ccc(Cl)cn2)c1` [betrixaban, [2-({4-[(dimethylamino)iminomethyl]phenyl}carbonylamino)-5-methoxyphenyl]-N-(5-chloro(2-pyridyl))carboxamide], the “concentration adequate for equivalent inhibition of thrombin generation as a therapeutic anticoagulant (Pentasaccharide fondaparinux)” value in test [6] was determined as 31.25 nM. In test [5] (betrixaban), the non-effective doses result was “below 100 ng/mL”. In test [3] (setting [8]), the “time for appearance of first thrombus” value is on record as “significantly delayed” and the time to occlusion result was “significantly delayed”. Besides, in test [3] (betrixaban 2 and 4 mg/kg, oral gavage), the “effect in the thrombosis model” value is “non-effective”.

Take `O=C(NC[C@H]1CN(c2ccc(N3CCOCC3=O)cc2)C(=O)O1)c1ccc(Cl)s1` [rivaroxaban, (5S)-5-chloro-N-((2-oxo-3-(4-(3-oxomorpholino)phenyl)oxazolidin-5-yl)methyl)thiophene-2-carboxamide]: in test [5], the “antithrombotic activity in the intravital microscopy thrombosis model in mice” value is “significant antithrombotic activity”.

As for bivalirudin, the “inhibition of the thrombotic process” value in test [7] is given as “did not significantly inhibit the thrombotic process”.
